From publication PMC10415494, “Ga(III) pyridinecarboxylate complexes: potential analogues of the second generation of therapeutic Ga(III) complexes?” (Journal of Biological Inorganic Chemistry, 2023)

How the values were obtained:
[1] = Potentiometric determination of ligand protonation (dissociation) constants; type: physicochemical; conditions: 25 °C, I(KNO3) = 0.1 M
Method: The stock solution of HPic and H2Dpic was prepared by dissolving in demineralized water (c(ligand) = 0.02 M). The gallium(III) ion solution was prepared from anhydrous gallium(III) nitrate (c(Ga^3+) = 0.05 M) and was standardized by back titration of excess of EDTA with zinc(II). Decarbonated potassium hydroxide solution (approx. 0.2 M) was used as a titrant that was standardized by potassium hydrogen phthalate (c(KHP) = 0.1 M). Standard inert electrolyte of nitric acid was used in all titrations (c(HNO3) = 0.03 M, I(HNO3/KNO3) = 0.1 M). Potentiometric measurements were carried out using a TitroLine 7000 dosage system with a BlueLine combination electrode (SI Analytics) in a glass vessel (5 mL) thermostated at 25 ± 0.1 °C at an ionic strength I(KNO3) = 0.1 M. Inert atmosphere was ensured by a constant flow of a nitrogen gas. Precise calibration of the electrode was carried out by the titration of 0.03 M HNO3 with 0.2 M KOH in the range –log[H^+] = 1.8–12.0, with the pH-meter yielding E values. The relation between E and –log[H^+] is expressed by Eq. (1) where the term E^0 contains the standard potentials of the electrode and the contribution of inert ions to the liquid-junction potential. The value S corresponds to the Nernstian slope, the value of which should be close to the theoretical value, and j1[H^+] and j2[OH^–] = j2Kw/[H^+] are contributions of the H^+ and OH^– ions, respectively, to the liquid-junction potential. The pKw value was 13.78 in Eq. (1).1 E=E^0-S-logH^++j1H^++j2Kw/H^+
The parameters j1 and j2 cause deviation from linear dependence between E and –log[H^+] only in strongly acidic and strongly alkaline solutions. The picolinic and dipicolinic acid protonation constants were determined with ligand concentration 0.004 M. The stability constants in the Ga-HPic and Ga-H2Dpic binary system were determined by the ligand concentrations 0.004 and the Ga^3+ concentration was 0.004, 0.002 and 0.001 M in dependence on the ligand to metal ratio.
The protonation constants β110, β210 are the concentration constants and are defined by β110 = [HL]/ [H][L], β210 = [H2L]/ [H]^2[L] (pK2 = logβ110, pK1 = logβ210- logβ110); the stability constants are defined by βrqp = [HrLqMp]/[H]^r[L]^q[M]^p. The equilibrium constants were obtained by fitting the titration data with OPIUM [23]. The following hydrolysis constants were used for the calculations: βpr = [Mp(OH)r^3−r][H]^r/[M]^p; log β11 = − 2.74; log β12 = − 7.0; log β13 = − 11.96; log β14 = − 15.52 [24].

[2] = target: T1, bovine serum albumin (BSA) (Bos taurus, UniProt P02769); assay: BSA fluorescence quenching (Stern-Volmer); type: binding; conditions: 0.01 M PBS buffer pH 7.4, 25 °C, λex = 280 nm
T1 construct: purchased Sigma-Aldrich Chemicals
T1 sequence (P02769 25-607): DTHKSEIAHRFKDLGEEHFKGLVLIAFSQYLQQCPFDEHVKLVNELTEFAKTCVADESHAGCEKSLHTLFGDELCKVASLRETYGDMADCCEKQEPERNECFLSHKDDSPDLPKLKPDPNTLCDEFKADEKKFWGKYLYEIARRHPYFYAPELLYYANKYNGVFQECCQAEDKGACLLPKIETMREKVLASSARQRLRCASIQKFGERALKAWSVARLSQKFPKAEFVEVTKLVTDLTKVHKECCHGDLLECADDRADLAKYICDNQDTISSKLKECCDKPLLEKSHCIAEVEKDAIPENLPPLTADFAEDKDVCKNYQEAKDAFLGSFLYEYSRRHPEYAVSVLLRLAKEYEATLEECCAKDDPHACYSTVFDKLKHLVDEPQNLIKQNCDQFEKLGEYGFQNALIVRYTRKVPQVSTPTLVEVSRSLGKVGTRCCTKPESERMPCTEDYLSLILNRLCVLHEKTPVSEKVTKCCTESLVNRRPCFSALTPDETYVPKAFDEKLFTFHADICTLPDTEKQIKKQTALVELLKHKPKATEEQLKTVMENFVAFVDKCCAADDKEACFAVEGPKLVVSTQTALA
Method: Fluorescence measurements were carried out on a Varian Cary Eclipse spectrofluorometer. The quenching studies of BSA with the Ga(III) complexes were investigated to determine whether they were able to quench fluorescence of BSA. All measurements were performed at 25 °C in 0.01 M PBS buffer (pH 7.4). The fluorescence spectra were measured at an excitation wavelength of 280 nm, with a slit width of 10 nm for the excitation and emission beams, in the range of 300–450 nm and analysed according to the classical Stern–Volmer Equation: F0/F=1+KSVQ where F0 and F are the fluorescence intensities in the absence and the presence of the quencher, respectively, KSV is the Stern–Volmer constant, and [Q] is the concentration of quencher.

[3] = tested on: any model microorganism; assay: Antimicrobial activity, macrodilution method, all model microorganisms together; type: cell-based; conditions: free ligands, range 0.5–2.0 mM
Method: Cultures of bacteria (in Mueller–Hinton broth, MHB) and yeasts (in Sabouraud’s growth medium, SB) were incubated under shaking (250 rpm) at 37 °C. The growth of bacteria and yeasts was evaluated by measuring the absorbance of the growing cultures (A590) until the cultures reached the stationary growth phase. The effects of gallium(III) complexes on the growth of filamentous fungi Rhizopus oryzae (R. oryzae) CCM F-8284, Alternaria alternata (A. alternata) CCM F-128 and Microsporum gypseum (M. gypseum) CCM F-8342 (Czech Collection of Microorganisms) were observed by macrodilution method on solidified potato-dextrose growth medium (PDA). During culturing, the diameters of growing fungal colonies were measured at regular intervals. Briefly, the antimicrobial activity (bacteria and yeasts) gallium(III) complexes/ ligands were added to the microbial culture at the beginning of the cultivation-to the lag phase. Pure gallium(III) complexes/ligands were dissolved in DMSO. The final concentration of DMSO never exceeded 1.0 vol. % neither in control nor treated samples. Concentration of gallium(III) complexes used in experimental work for evaluation of antimicrobial activity was used in the range of 0.05–2 mM, for the free ligands in the range of 0.5–2.0 mM in all experiments. […] The IC50 values were evaluated from toxicity curves. All the obtained results of antimicrobial activity were compared to the activity of Ga(NO3)3.

Row | Structure (SMILES) | dissociation constant pK2 [1] | dissociation constant pK3 [1] | Stern–Volmer binding constant Ksv BSA [2] | effect on the growth of any model microorganism [3] | dissociation constant pK1 [1]
1 | O=C(O)c1cccc(C(=O)O)n1 [H2Dpic, dipicolinic acid] | 2.02 | 4.74 | 28700 M⁻¹ | – | –
2 | O=C(O)c1ccccn1 [HPic, picolinic acid] | 5.25 | – | 6800 M⁻¹ | did not affect the growth | 1.17
